Measurements reported in BindingDB's records for doi:10.1021/jm101401a (Sanford-Burnham Medical Research Institute, 2011).

Biological target: T1, Mannose-6-phosphate isomerase (Homo sapiens, UniProt P34949)
T1 sequence (P34949 whole entry): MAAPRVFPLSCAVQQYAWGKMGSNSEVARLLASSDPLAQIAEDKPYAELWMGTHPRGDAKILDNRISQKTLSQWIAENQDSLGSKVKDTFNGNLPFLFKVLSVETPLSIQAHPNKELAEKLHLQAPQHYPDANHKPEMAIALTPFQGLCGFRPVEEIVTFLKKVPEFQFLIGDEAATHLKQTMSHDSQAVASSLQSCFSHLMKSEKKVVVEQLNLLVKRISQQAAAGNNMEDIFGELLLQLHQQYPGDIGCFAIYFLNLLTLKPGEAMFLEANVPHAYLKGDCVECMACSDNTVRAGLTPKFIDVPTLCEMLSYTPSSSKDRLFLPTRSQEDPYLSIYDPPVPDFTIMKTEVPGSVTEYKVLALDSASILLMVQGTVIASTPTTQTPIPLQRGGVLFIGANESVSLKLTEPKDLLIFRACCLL
Assay: Inhibition of human purified phosphomannose isomerase

IC50 [µM]	Compound
> 10	C=CCn1c(=O)c(=Cc2cc(OC)c(OC)c(OC)c2)s/c1=C(/C#N)c1nc2ccccc2n1C [2-(1-methyl-2-benzimidazolyl)-2-[4-oxo-3-prop-2-enyl-5-[(3,4,5-trimethoxyphenyl)methylidene]-2-thiazolidinylidene]acetonitrile]
> 10	Oc1c(-c2ccccc2)sc2ccccc12 [2-phenyl-1-benzothiophen-3-one]
